Measurements taken from patent publication US20250002492A1, “COMPOSITIONS OF FOLATE ABSORPTION INHIBITORS AND METHODS THEREOF” (THE TEXAS A&M UNIVERSITY SYSTEM, priority 2023, published 2025).

Key:
[1] = tested on: Caco-2 cells; test: Toxicity in Caco-2 cells; type: cell-based; details: tested at 2-400 μM
[2] = tested on: C. elegans strain N2; test: Lifespan assay in worms; type: in vivo
From the text: The ability of pharmacological or other interventions to extend the lifespan of different organisms is often conserved. For the instant example, the disclosed compounds can be tested for their ability to extend the lifespan of the worm model system Caenorhabditis elegans (N2 strain) [see, e.g., PMID: 19488025]. The organisms can be first exposed to the compounds as adults, 2-3 days after the egg stage until their death, on solid media containing the compounds at the desired concentration. The temperature can be kept constant at 20° C. throughout the assays. The bacteria used as food for the worms (Escherichia coli strain OP-50) can be dead (e.g., killed by lethal doses of ultraviolet radiation) to ensure that any effects on lifespan are not indirect, mediated through bacterial metabolism.
The assays were performed at 20° C. using C. elegans strain N2 and a bacterial strain (OP50) commonly used as food for the worms. Briefly, the assays were performed on solid agar nematode growth media (NGM) plates prepared fresh before each experiment. The bacterial lawn was exposed twice to a UV dose of 120 mJ/cm^2 using a UVC-515 Ultraviolet Multilinker (Ultra-Lum, Inc.). Streaking these UV-exposed bacteria to fresh LB agar plates (1% w/v tryptone, 0.5% w/v yeast extract, 1% w/v sodium chloride) produced no visible colonies. Methotrexate, or the ATIC inhibitor, was first dissolved in DMSO and then added to the media used to prepare the plates after autoclaving (the media were kept in a 50° C. water bath until the plates were poured). Mock-treated control plates contained only DMSO. At the start of each experiment, a sufficient number of eggs were collected from plates without any drugs and then placed on plates containing the indicated doses of each compound tested. After hatching and progression to the adult stage, animals were transferred to new plates (marked as the start of the lifespan assay) containing the drug tested and fluorodeoxyuridine (FUDR; dissolved in water), added at 50 μM to block hatching of new animals. The plates were scored at least every other day until all the worms died. If an animal responded to gentle touch, it was scored as alive, otherwise a death was recorded, and the animal was removed from the plate. Worms were transferred to fresh plates as needed (e.g., if there was evidence of microbial contamination, dryness/cracks on the agar surface, consumption of the bacterial lawn, or hatching of new animals that escaped the FUDR block). The reported lifespans were compiled from several independent experiments done over several months (9-10 months for the methotrexate experiments and 4-5 months for the ATIC inhibitor), each scored by multiple individuals (4-5 persons per experiment). No experiments were excluded from the analysis.

For `CC(=O)N1CCC(C(=O)N2CCN3C(=O)c4cc(-c5ccccc5)ccc4NC(=O)C3C2)CC1` (stereo not shown) [MPOL_B_1, 2-(1-acetylpiperidine-4-carbonyl)-8-phenyl-1,3,4,12a-tetrahydrobenzo[e]pyrazino[1,2-a][1,4]diazepine-6,12(2H,11H)-dione], the “toxicity” value [1] was “not toxic”, the “lifespan effect relative to the effect of methotrexate” value ([2]; same worm assay) was 2-3 times and the “extension of maximal lifespan” value ([2]; worms, 50 and 100 μM) was about 30%. The “extension of mean lifespan” value ([2]; worms, 50 and 100 μM) was about 30%.
